± gives the standard deviation of the averaged measurements.
Test system: SK-N-MM (SKNMM-MYCN, doxycycline-inducible MYCN)
Assay: area under dose-response curve (CellTiter-Glo viability normalised to plate controls) (AUC (arbitrary units)); higher = more loss of viability; extreme values may be limits of the assay
In short: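 SK-N-MM cells carrying doxycycline-inducible MYCN were seeded in 96-well plates at 1250 cells/100 μL, and about 24 h later they received medium with or without doxycycline. Two days after that, 10-point 1:3 dilution series of compounds were added by pin transfer (890-fold dilution of stock), with a second dose on day 4. CellTiter-Glo luminescence was measured 3 or 8 days after drugging. Log2 signals were scaled against the positive and negative controls on each plate and used to calculate the area under the dose-response curve.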

[1] = MYCN induction (doxycycline): +doxycycline (MYCN induced), time after drugging: 3 days
[2] = MYCN induction (doxycycline): +doxycycline (MYCN induced), time after drugging: 8 days
[3] = MYCN induction (doxycycline): no doxycycline (MYCN not induced), time after drugging: 3 days
[4] = MYCN induction (doxycycline): no doxycycline (MYCN not induced), time after drugging: 8 days

## CCN(CC)CCCC(C)Nc1c2ccc(Cl)cc2nc2ccc(OC)cc12 (configuration not stated) [QUINACRINE]
[1]
  area under dose-response curve: 2.07
[2]
  area under dose-response curve: 146
[3]
  area under dose-response curve: 0
[4]
  area under dose-response curve: 149

## CC/C(=C(\c1ccccc1)c1ccc(OCCN(C)C)cc1)c1ccccc1 [TAMOXIFEN]
[1]
  area under dose-response curve: 0
[2]
  area under dose-response curve: 0
[3]
  area under dose-response curve: 0
[4]
  area under dose-response curve: 0

## Cc1nc(=O)c2cc(CN(C)c3ccc(C(=O)N[C@@H](CCC(=O)O)C(=O)O)s3)ccc2[nH]1 [RALTITREXED]
[1]
  area under dose-response curve: 22.3
[2]
  area under dose-response curve: 166
[3]
  area under dose-response curve: 6.42
[4]
  area under dose-response curve: 63.1

## O=P1(NCCCl)OCCCN1CCCl (configuration not stated) [IFOSFAMIDE]
[1]
  area under dose-response curve: 0
[2]
  area under dose-response curve: 0
[3]
  area under dose-response curve: 0

## CC(=O)c1c(C)c2cnc(Nc3ccc(N4CCNCC4)cn3)nc2n(C2CCCC2)c1=O [PALBOCICLIB]
[1]
  area under dose-response curve: 0
[2]
  area under dose-response curve: 78.6
[3]
  area under dose-response curve: 0
[4]
  area under dose-response curve: 65.5

## C#Cc1cccc(Nc2ncnc3cc(OCCOC)c(OCCOC)cc23)c1 [ERLOTINIB]
[2]
  area under dose-response curve: 1.15
[3]
  area under dose-response curve: 18.8

## O=c1[nH]c(=O)n([C@H]2C[C@H](O)[C@@H](CO)O2)cc1F [FLOXURIDINE]
[1]
  area under dose-response curve: 23.4
[2]
  area under dose-response curve: 165
[3]
  area under dose-response curve: 11.8
[4]
  area under dose-response curve: 66.3

## Nc1ncn([C@@H]2O[C@H](CO)[C@@H](O)[C@H]2O)c(=O)n1 [5-AZACYTIDINE]
[1]
  area under dose-response curve: 33.8
[2]
  area under dose-response curve: 58.3
[3]
  area under dose-response curve: 21.5
[4]
  area under dose-response curve: 23.6

## O=c1[nH]cc(F)c(=O)[nH]1 [5-FLUOROURACIL]
[1]
  area under dose-response curve: 12.1
[2]
  area under dose-response curve: 24.8
[3]
  area under dose-response curve: 6.6
[4]
  area under dose-response curve: 25

## O=C(NC[C@H](O)CN1CCc2ccccc2C1)c1ccnc(NC2CCC2)c1
[2]
  area under dose-response curve: 23.4

## CN(Cc1cnc2nc(N)nc(N)c2n1)c1ccc(C(=O)N[C@@H](CCC(=O)O)C(=O)O)cc1 [METHOTREXATE]
[1]
  area under dose-response curve: 3.6
[2]
  area under dose-response curve: 18.6
[3]
  area under dose-response curve: 0.0478

## Cn1cnc2c(F)c(Nc3ccc(Br)cc3F)c(C(=O)NOCCO)cc21 [BINIMETINIB]
[1]
  area under dose-response curve: 0
[2]
  area under dose-response curve: 0
[3]
  area under dose-response curve: 17.9
[4]
  area under dose-response curve: 56.9

## COc1cc2c(Oc3ccc(NC(=O)C4(C(=O)Nc5ccc(F)cc5)CC4)cc3F)ccnc2cc1OCCCN1CCOCC1 [FORETINIB]
[1]
  area under dose-response curve: 167
[2]
  area under dose-response curve: 170
[3]
  area under dose-response curve: 144
[4]
  area under dose-response curve: 140

## Nc1nc(=O)n([C@H]2C[C@H](O)[C@@H](CO)O2)cc1F [5-FLUORODEOXYCYTIDINE]
[1]
  area under dose-response curve: 23.7
[2]
  area under dose-response curve: 184
[3]
  area under dose-response curve: 9.38
[4]
  area under dose-response curve: 58.5

## CS(=O)(=O)c1ccc(C(=O)Nc2ccc(Cl)c(-c3ccccn3)c2)c(Cl)c1 [VISMODEGIB]
[1]
  area under dose-response curve: 0
[2]
  area under dose-response curve: 0
[3]
  area under dose-response curve: 0
[4]
  area under dose-response curve: 0

## CCN(CC)CCNC(=O)c1c(C)[nH]c(/C=C2\C(=O)Nc3ccc(F)cc32)c1C [SUNITINIB]
[1]
  area under dose-response curve: 3.49
[2]
  area under dose-response curve: 132
[3]
  area under dose-response curve: 3.64
[4]
  area under dose-response curve: 140

## Cn1nnc2c(C(N)=O)ncn2c1=O [TEMOZOLOMIDE]
[1]
  area under dose-response curve: 0
[2]
  area under dose-response curve: 0
[3]
  area under dose-response curve: 0

## COc1cc2nccc(Oc3ccc(NC(=O)C4(C(=O)Nc5ccc(F)cc5)CC4)cc3)c2cc1OC [CABOZANTINIB]
[1]
  area under dose-response curve: 0
[2]
  area under dose-response curve: 0
[3]
  area under dose-response curve: 0
[4]
  area under dose-response curve: 0

## Cc1c(-c2c(-c3ccc(F)o3)sc3ncnc(O[C@H](Cc4ccccc4OCc4ccnn4CC(F)(F)F)C(=O)O)c23)ccc(OCCN2CCN(C)CC2)c1Cl
[2]
  area under dose-response curve: 7.67

## N[C@H](CCC(=O)N[C@@H](Cc1c[nH]c2ccccc12)C(=O)O)C(=O)O [GOLOTIMOD]
[2]
  area under dose-response curve: 0
[3]
  area under dose-response curve: 0
[4]
  area under dose-response curve: 12.7

## CCC(=O)OCN1C(=O)C=CC1=O [MIRA-1]
[4]
  area under dose-response curve: 39

## C=C(c1ccc(C(=O)O)cc1)c1cc2c(cc1C)C(C)(C)CCC2(C)C [BEXAROTENE]
[1]
  area under dose-response curve: 4.22 ± 5.2
[3]
  area under dose-response curve: 11.9
[4]
  area under dose-response curve: 0
